From ChEMBL document CHEMBL1201862, “PubChem BioAssay data set” (2004)
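Compound exposure: 48 hours, 5 concentrations, 96-well plates. The concentration for 50% growth inhibition is given as GI50.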 Calls of active or inactive are those of the source. No stated cut-off is given here; in the data, active = GI50 up to about 1.1 µM and inactive = higher.

How the values were obtained:
Test in all cases: NCI anticancer screen, dose series, 48 h
[1] = tested on: ACHN
[2] = tested on: COLO 205
[3] = tested on: DLD-1
[4] = tested on: IGROV-1
[5] = tested on: K562
[6] = tested on: Malme-3M
[7] = tested on: OVCAR-5
[8] = tested on: SK-MEL-28
[9] = tested on: SK-MEL-2
[10] = tested on: SK-OV-3
[11] = tested on: SNB-19
[12] = tested on: SW-620
[13] = tested on: UACC-257
[14] = tested on: UACC-62
[15] = tested on: NCI-H226
[16] = tested on: DU-145
[17] = tested on: MCF7
[18] = tested on: MDA-MB-231
[19] = tested on: RXF 393
[20] = tested on: SNB-75

Measured: GI50

O=C(O)COc1ccc(O)c2c1C(=O)CCCC2=O
inactive: [1] > 100 µM | [2] > 100 µM | [3] > 100 µM | [4] > 100 µM | [5] > 100 µM | [6] > 100 µM | [7] > 100 µM | [8] > 100 µM | [9] > 100 µM | [10] > 100 µM | [11] > 100 µM | [12] > 100 µM | [13] > 100 µM | [14] > 100 µM

CCCCCCCC(=O)OCC(COC(=O)C(C)(C)C)OC(=O)Cc1ccccc1 (centres undefined)
inactive: [1] > 100 µM | [2] > 100 µM | [3] > 100 µM | [4] > 100 µM | [5] > 100 µM | [6] > 100 µM | [15] > 100 µM | [7] > 100 µM | [8] > 100 µM | [10] > 100 µM | [11] > 100 µM | [12] > 100 µM | [14] > 100 µM

CCCCCCCCOCC(O)COC(C)C (centres undefined)
inactive: [1] 97.9 µM | [2] 40 µM | [3] 89.7 µM | [4] > 100 µM | [5] 28.1 µM | [6] 61.7 µM | [15] 70 µM | [7] > 100 µM | [8] > 100 µM | [10] > 100 µM | [11] 74.6 µM | [12] 59.8 µM | [13] 27.9 µM | [14] 91.4 µM

Clc1ccc(OCC2NC3CCC2CC3)cn1 (centres undefined)
inactive: [1] 33.3 µM | [2] 17.1 µM | [16] 59.3 µM | [4] 38.2 µM | [5] 17.5 µM | [17] 17.9 µM | [18] 19.1 µM | [6] 19.5 µM | [15] > 100 µM | [7] 52 µM | [19] 36.9 µM | [8] 37.8 µM | [9] 18 µM | [10] 52.7 µM | [11] 34.4 µM | [20] 61 µM | [12] 22.7 µM | [13] 17.8 µM | [14] 17.7 µM

C#CCn1c(I)cc2c(c1=O)COC(=O)[C@]2(O)CC
inactive: [1] > 100 µM | [2] > 100 µM | [16] > 100 µM | [4] > 100 µM | [5] > 100 µM | [17] > 100 µM | [18] > 100 µM | [6] > 100 µM | [15] > 100 µM | [7] > 100 µM | [19] > 100 µM | [8] > 100 µM | [9] > 100 µM | [10] > 100 µM | [11] > 100 µM | [20] > 100 µM | [12] > 100 µM | [13] > 100 µM | [14] > 100 µM
